In the supplement of paper PMC10307832:

How the values were obtained:
Test in all cases: relative viability (nuclei count vs DMSO), 5 days (fraction); higher = more cells survive
[1] = compound: CCC1=CN=CN=C1N2CCN(CC2)CC3=NC4=C(N3)C=C(C=C4)C(F)(F)F + O=C(c1cc(Cc2n[nH]c(=O)c3ccccc23)ccc1F)N1CCN(C(=O)C2CC2)CC1 [Olaparib] (partner 8 µM)
In short: (§1)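 Nuclei were stained with Hoechst during a one-step fixation (final 0.05% Triton X-100, 1% formaldehyde, 1 ug/ml Hoechst) carried out 5 days after dosing, then counted on 4× images. The cells, lung cancer lines in 1536-well plates, had been dosed by pin tool the day after seeding with one drug alone or a fixed anchor-drug dose plus five library-drug doses (not always all listed) in √10 steps. Relative viability is the nuclei count in treated wells divided by that in vehicle wells, and each value is the median of duplicate plates.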

[2] = compound: CCC1=CN=CN=C1N2CCN(CC2)CC3=NC4=C(N3)C=C(C=C4)C(F)(F)F + Cc1nc(NC(=O)N2CCC[C@H]2C(N)=O)sc1-c1ccnc(C(C)(C)C(F)(F)F)c1 [Alpelisib] (partner 2 µM)
In short: as §1

[3] = compound: CCn1c(-c2nonc2N)nc2cnc(Oc3cccc(NC(=O)c4ccc(OCCN5CCOCC5)cc4)c3)cc21 + CS(=O)(=O)CCNCc1ccc(-c2ccc3ncnc(Nc4ccc(OCc5cccc(F)c5)c(Cl)c4)c3c2)o1 [Lapatinib] (partner 2 µM)
In short: as §1

[4] = compound: CCn1c(-c2nonc2N)nc2cnc(Oc3cccc(NC(=O)c4ccc(OCCN5CCOCC5)cc4)c3)cc21 + CC(=O)Nc1cccc(-n2c(=O)n(C3CC3)c(=O)c3c(Nc4ccc(I)cc4F)n(C)c(=O)c(C)c32)c1 [Trametinib] (partner 0.02 µM)
In short: as §1

Row | Cell Line | relative viability ([1]; first compound 0.04 µM) | relative viability ([1]; first compound 0.1265 µM) | relative viability ([1]; first compound 0.4 µM) | relative viability ([1]; first compound 1.265 µM) | relative viability ([1]; first compound 4 µM) | relative viability ([2]; first compound 0.04 µM) | relative viability ([2]; first compound 0.1265 µM) | relative viability ([2]; first compound 0.4 µM) | relative viability ([2]; first compound 1.265 µM) | relative viability ([2]; first compound 4 µM) | relative viability ([3]; first compound 0.04 µM) | relative viability ([3]; first compound 0.1265 µM) | relative viability ([3]; first compound 0.4 µM) | relative viability ([3]; first compound 1.265 µM) | relative viability ([3]; first compound 4 µM) | relative viability ([4]; first compound 0.04 µM) | relative viability ([4]; first compound 0.1265 µM) | relative viability ([4]; first compound 0.4 µM) | relative viability ([4]; first compound 1.265 µM) | relative viability ([4]; first compound 4 µM)
1 | 201T | 0.816 | 0.831 | 0.866 | 0.814 | 0.853 | 1 | 0.988 | 0.995 | 0.902 | 1.06 | 1.07 | 0.967 | 0.78 | 0.911 | 0.868 | 0.719 | 0.706 | 0.749 | 0.697 | 0.698
2 | A549 | 0.318 | 0.179 | 0.333 | 0.333 | 0.387 | 0.763 | 0.657 | 0.849 | 0.698 | 0.831 | 1.25 | 0.916 | 0.884 | 0.118 | 0.107 | – | – | – | – | –
3 | A-427 | 0.683 | 0.72 | 0.636 | 0.698 | 0.595 | 1.08 | 1.08 | 0.99 | 0.986 | 0.791 | 1.2 | 1.04 | 0.903 | 0.993 | 0.582 | 0.879 | 0.839 | 0.727 | 0.381 | 0.373
4 | ABC-1 | – | – | 0.646 | 0.649 | 0.536 | 0.987 | 1 | 1.08 | 0.942 | 0.971 | 1.3 | 0.997 | – | – | 1.08 | – | – | – | – | –
5 | BEN | 1.01 | 1.08 | 1.03 | 0.629 | 0.598 | 0.961 | 0.965 | 0.898 | 0.574 | 0.583 | 0.627 | 0.695 | 0.348 | 0.279 | 0.317 | 0.955 | 0.972 | 0.702 | 0.518 | 0.521
6 | CAL-12T | 0.75 | 0.726 | 0.721 | 0.661 | 0.667 | 1.25 | 1.16 | 1.06 | 1.32 | 1.09 | 1.25 | 0.817 | 0.849 | – | 0.685 | 0.354 | 0.363 | 0.372 | 0.346 | 0.345
7 | COR-L23 | 0.351 | 0.316 | 0.332 | 0.344 | 0.356 | 0.899 | 0.721 | 0.886 | 0.702 | 0.783 | 1.16 | 0.714 | 0.335 | 0.198 | 0.143 | 0.647 | 0.517 | 0.248 | 0.192 | 0.16
8 | COR-L 105 | 0.654 | 0.711 | 0.623 | 0.648 | 0.762 | 1.07 | 0.847 | 0.966 | 0.893 | 0.894 | 0.327 | 0.412 | 0.278 | 0.288 | 0.297 | 0.343 | 0.42 | 0.365 | 0.319 | 0.376
9 | Calu-6 | 0.681 | 0.591 | 0.523 | 0.556 | 0.483 | 0.891 | 0.923 | 0.86 | 0.822 | 0.86 | 1.22 | 0.932 | 0.985 | 0.616 | 0.517 | – | – | – | – | –
10 | ChaGo-K-1 | 0.392 | 0.39 | 0.457 | 0.431 | 0.381 | – | – | – | – | – | – | – | – | – | – | 1.06 | 0.928 | 0.844 | 0.89 | 0.866
11 | EBC-1 | 0.691 | 0.644 | 0.688 | 0.675 | 0.699 | 0.962 | 0.769 | 0.796 | 0.697 | 1.03 | 0.224 | 0.206 | 0.196 | 0.179 | 0.197 | – | – | – | – | –
12 | EKVX | 0.877 | 0.734 | 0.89 | 0.684 | 0.862 | 0.875 | 0.828 | 0.762 | 0.699 | 0.866 | 0.446 | 0.221 | 0.177 | 0.197 | 0.229 | 0.411 | 0.389 | 0.404 | 0.371 | 0.415
13 | EMC-BAC-2 | 0.505 | 0.503 | 0.47 | 0.447 | 0.479 | 0.748 | 0.697 | 0.726 | 0.723 | 0.774 | 0.931 | 0.955 | 0.543 | 0.645 | 0.588 | 0.905 | 0.922 | 0.826 | 0.401 | 0.445
14 | EPLC-272H | 0.687 | 0.693 | 0.835 | 0.617 | 0.695 | 0.795 | 0.85 | 0.813 | 0.979 | 0.981 | 1.46 | 0.903 | 0.796 | 0.187 | 0.827 | 0.365 | 0.347 | 0.256 | 0.213 | 0.197
15 | H3255 | 0.597 | 0.535 | 0.556 | 0.504 | 0.521 | 0.742 | 0.721 | 0.711 | 0.67 | 0.65 | 0.293 | 0.305 | 0.237 | 0.271 | 0.256 | 0.671 | 0.676 | 0.577 | 0.442 | 0.579
16 | HARA | 0.743 | 0.923 | 0.763 | 0.737 | 0.84 | 0.858 | 0.744 | 0.816 | 0.651 | 0.812 | 0.826 | 0.732 | 0.27 | 0.217 | 0.213 | 0.494 | 0.874 | 0.687 | 0.333 | 0.254
17 | HCC-15 | 0.688 | 0.727 | 0.685 | 0.762 | 0.668 | 0.954 | 0.877 | 0.925 | 0.892 | 0.889 | 0.962 | 0.736 | 0.779 | 0.628 | 0.745 | 0.38 | 0.36 | 0.348 | 0.39 | 0.378
18 | HCC-44 | 1.02 | 0.963 | 0.978 | 0.99 | 0.966 | 0.789 | 0.746 | 0.815 | 0.743 | 0.713 | 1.07 | 1.1 | 0.622 | 0.342 | 0.368 | 1.06 | 1.12 | 1.04 | 1.05 | 1.03
